Assay results published in doi:10.1101/2025.11.23.690065v1 (biorxiv, 2025).

What was measured:
LAG-3 [1] = target: T1, LAG-3 (Homo sapiens, UniProt P18627); test: single-dose TRIC screen; format: binding; details: 2% DMSO; bound from single-dose screen at 300 µM
T1 sequence (P18627 23-525): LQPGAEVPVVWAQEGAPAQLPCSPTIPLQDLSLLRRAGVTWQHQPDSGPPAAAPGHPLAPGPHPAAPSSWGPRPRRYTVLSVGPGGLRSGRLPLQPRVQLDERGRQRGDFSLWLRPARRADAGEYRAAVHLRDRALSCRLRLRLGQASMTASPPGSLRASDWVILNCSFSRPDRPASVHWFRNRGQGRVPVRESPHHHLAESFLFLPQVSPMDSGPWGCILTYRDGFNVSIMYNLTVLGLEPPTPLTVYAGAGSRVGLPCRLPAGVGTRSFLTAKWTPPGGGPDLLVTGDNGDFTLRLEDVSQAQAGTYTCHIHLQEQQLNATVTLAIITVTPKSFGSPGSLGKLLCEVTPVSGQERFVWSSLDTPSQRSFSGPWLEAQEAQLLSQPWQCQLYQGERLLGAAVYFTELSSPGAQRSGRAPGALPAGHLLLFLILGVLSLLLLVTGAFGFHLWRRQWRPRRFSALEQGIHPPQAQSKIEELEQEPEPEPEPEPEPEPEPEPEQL

His-TREM2 (TREM2) [2] = target: T2, His-TREM2 (TREM2) (Homo sapiens, UniProt Q9NZC2); test: MST; format: binding
T2 sequence (Q9NZC2 19-174 limits assumed): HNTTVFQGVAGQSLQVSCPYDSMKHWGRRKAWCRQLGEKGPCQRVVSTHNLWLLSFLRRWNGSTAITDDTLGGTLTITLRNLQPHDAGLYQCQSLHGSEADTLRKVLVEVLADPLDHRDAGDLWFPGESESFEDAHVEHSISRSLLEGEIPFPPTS

TREM1 [3] = target: T3, TREM1 (Homo sapiens, UniProt Q9NP99); test: single-dose TRIC/MST screen; format: binding; details: PBS pH 7.4, 0.05% Tween-20; bound from single-dose screen at 300 µM
LAG-3 [4] = target: T1, LAG-3; test: MST; format: binding
TREM1 [5] = target: T3, TREM1; test: MST; format: binding
His-TREM2 (TREM2) [6] = target: T2, His-TREM2 (TREM2); test: biochemical
His-TREM2 (TREM2) [7] = target: T2, His-TREM2 (TREM2); test: nanoDSF thermal shift, dose-response; format: binding
His-TREM2 (TREM2) [8] = target: T2, His-TREM2 (TREM2); test: nanoDSF thermal shift; format: binding; details: read-out: ΔTm at 100 μM

T3 sequence (Q9NP99 21-205 limits assumed): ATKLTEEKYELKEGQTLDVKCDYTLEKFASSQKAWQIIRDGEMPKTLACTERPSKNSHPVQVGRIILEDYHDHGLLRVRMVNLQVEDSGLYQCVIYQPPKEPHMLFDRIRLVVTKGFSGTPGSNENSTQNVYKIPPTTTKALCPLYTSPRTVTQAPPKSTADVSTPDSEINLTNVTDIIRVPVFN

| Compound | KD (LAG-3 [1]) | Kd (His-TREM2 (TREM2) [2]) | KD (TREM1 [3]) | Kd (LAG-3 [4]) | Kd (TREM1 [5]) | Kd (His-TREM2 (TREM2) [6]) | EC50 (His-TREM2 (TREM2) [7]) | ΔTm at 100 µM (His-TREM2 (TREM2) [8]) |
| --- | --- | --- | --- | --- | --- | --- | --- | --- |
| NC(=O)C1CCN(C(=O)c2cccn(Cc3ccccc3)c2=O)CC1 [2M06-1] | > 300 µM | 124 ± 36 µM | > 300 µM | – | – | – | – | – |
| Cn1cc(C(=O)N2C(C(=O)O)CC3CCCCC32)ccc1=O (stereo not drawn) [2M06-6] | > 300 µM | > 300 µM | > 300 µM | – | – | – | – | – |
| Cc1cccc(Cn2cccc(C(=O)NC3CCCCCC3)c2=O)c1 [2M06-8] | > 300 µM | > 300 µM | > 300 µM | – | – | – | – | – |
| Cc1cccc(Cn2cccc(C(=O)N3C(C(=O)O)CC4CCCCC43)c2=O)c1 (stereo not drawn) [2M06] | > 300 µM | 26.1 ± 5.1 µM | > 300 µM | – | – | – | – | – |
| O=C1CCCN1c1ccc2c(c1)CCN2 [6B10-1] | – | 19.5 ± 6.8 µM | – | 59.4 ± 14.1 µM | 121 ± 3.4 µM | – | – | – |
| CC(C)(C)CC(=O)Nc1ccc2c(c1)CCN2 [6B10-2] | > 300 µM | > 300 µM | > 300 µM | – | – | – | – | – |
| COC1(CC(=O)Nc2ccc3c(c2)CCN3)CCC1 [6B10-3] | > 300 µM | > 300 µM | > 300 µM | – | – | – | – | – |
| CC1(C(=O)Nc2ccc3c(c2)CCN3C(=O)c2ccoc2)CCCC1 [6B10-8] | > 300 µM | 127 ± 16 µM | > 300 µM | – | – | 136 ± 14 µM | – | – |
| O=C(Nc1ccc2c(c1)CCN2C(=O)c1ccoc1)C1CC2C=CC1C2 (stereo not drawn) [6B10-9] | > 300 µM | 68.3 ± 2.8 µM | > 300 µM | – | – | – | 62 µM | > 2 °C |
| CC(=O)N1CCc2cc(NC(=O)C3(C#N)CCCC3)ccc21 [6B10-13] | > 300 µM | > 300 µM | > 300 µM | – | – | – | – | – |
| O=C(Nc1ccc2c(c1)CCN2)C1CCCC1 [6B10] | > 300 µM | 37.6 ± 15.8 µM | – | – | 66.9 ± 28.6 µM | – | – | – |
| O=C(O)C1CC2CCCCC2N1Cc1cc(=O)n2ccccc2n1 (stereo not drawn) [7G19-5] | > 300 µM | 4.5 ± 0.9 µM | – | – | 56.6 ± 8.6 µM | – | – | – |
| Cc1cccn2c(=O)cc(CN3C(C(=O)O)CC4CCCCC43)nc12 (stereo not drawn) [7G19] | – | 3.8 ± 0.3 µM | – | 61.9 ± 23.2 µM | 46.5 ± 38.1 µM | – | – | – |
